Source: patent publication US20170066759A1, “AROMATIC 5-MEMBERED HETEROCYCLIC DERIVATIVE HAVING TRPV4-INHIBITING ACTIVITY” (Shionogi & Co., Ltd., priority 2012, published 2017)

What follows are compounds tested against T1, human TRPV4 (hTRPV4/CHO cells) (Homo sapiens, UniProt Q9HBA0) (assay: Test Example 1: TRPV4 inhibitory activity (IC50 value), 4α-PDD stimulation, Fluo4 calcium fluorescence (FLIPR TETRA)). Details: 1 μmol/L 4α-PDD, Fluo4-AM, read-out: TRPV4 inhibitory activity (IC50 value).
T1 construct: expressed in transfected cells; host or cells: CHO-K1
Format: cell-based

T1 sequence (Q9HBA0 whole entry): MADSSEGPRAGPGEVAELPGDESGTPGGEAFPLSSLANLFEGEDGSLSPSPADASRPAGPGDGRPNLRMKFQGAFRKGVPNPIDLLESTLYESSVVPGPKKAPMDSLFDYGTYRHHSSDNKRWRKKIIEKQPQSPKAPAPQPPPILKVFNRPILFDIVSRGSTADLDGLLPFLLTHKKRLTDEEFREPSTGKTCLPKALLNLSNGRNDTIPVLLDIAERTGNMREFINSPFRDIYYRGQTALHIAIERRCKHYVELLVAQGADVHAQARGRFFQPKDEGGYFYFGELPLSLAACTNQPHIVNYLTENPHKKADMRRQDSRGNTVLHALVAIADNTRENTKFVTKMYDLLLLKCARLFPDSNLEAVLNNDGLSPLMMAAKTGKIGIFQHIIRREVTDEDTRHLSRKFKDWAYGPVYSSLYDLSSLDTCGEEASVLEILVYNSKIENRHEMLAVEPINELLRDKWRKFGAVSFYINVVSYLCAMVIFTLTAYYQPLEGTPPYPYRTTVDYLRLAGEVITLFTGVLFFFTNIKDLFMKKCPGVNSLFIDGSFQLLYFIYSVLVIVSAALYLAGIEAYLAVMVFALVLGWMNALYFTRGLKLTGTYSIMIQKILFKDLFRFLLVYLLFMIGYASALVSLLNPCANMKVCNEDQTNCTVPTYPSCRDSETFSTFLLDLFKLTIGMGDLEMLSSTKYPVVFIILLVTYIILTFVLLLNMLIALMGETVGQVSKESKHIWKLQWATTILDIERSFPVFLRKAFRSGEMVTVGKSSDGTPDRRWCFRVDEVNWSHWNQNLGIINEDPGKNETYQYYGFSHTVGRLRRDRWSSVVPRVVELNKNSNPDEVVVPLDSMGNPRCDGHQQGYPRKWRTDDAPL

IC50 [nM]	Compound
1.6	Cc1nc(C)c(-c2csc(NC(=O)Cc3cc(OCC(F)(F)F)cc(C(=O)N[C@H](c4ccccc4)C(F)(F)F)c3)n2)s1 [Compound I-521]
22	CC(=O)NCc1nc(CO)sc1-c1csc(NC(=O)Cc2ccc(S(=O)(=O)C(F)(F)F)cc2)n1 [Compound I-382]

Same assay, conditions: Test Example 1, 4α-PDD stimulation, read-out: Test 1 IC50

Compound	IC50 [nM]
Cc1nc(C(F)F)sc1-c1csc(NC(=O)C2CC(OCc3ccccc3)C2)n1 (centres unmarked) [Compound I-111]	1000 to 8000
Cc1nc(C)c(-c2csc(NC(=O)Cc3ccc(S(=O)(=O)N(C)c4ccccc4)cc3)n2)s1 [Compound I-159]	< 100
Cc1nc(C)c(-c2csc(NC(=O)C3CN(Cc4ccc(C(F)(F)F)nc4)C3)n2)s1 [Compound I-282]	100 to 1000
CCS(=O)(=O)c1ccc(CC(=O)Nc2nc(-c3sc(C)nc3C)cs2)cc1 [Compound I-80]	100 to 1000
NC(=O)c1nc(CO)c(-c2csc(NC(=O)C3CN(Cc4cccc(C(F)(F)F)c4)C3)n2)s1 [Compound I-324]	100 to 1000
Cc1nc(C)c(-c2csc(NC(=O)Cc3cc(F)cc(C#N)c3)n2)s1 [Compound I-77]	< 100
Cc1nc(C)c(-c2csc(NC(=O)[C@@H]3C[C@@H](Oc4ccccc4)CN3)n2)s1 [Compound I-244]	100 to 1000
Cc1nc(C)c(-c2csc(NC(=O)[C@@H]3C[C@H](c4ccccc4)CN3C(=O)OC(C)(C)C)n2)s1 [Compound I-246]	< 100
Cc1nc(C)c(-c2nc(NC(=O)Cc3c(F)cccc3F)sc2-c2cnn(C)c2)s1 [Compound I-62]	1000 to 8000
Cc1nc(C)c(-c2csc(NC(=O)[C@@H]3C[C@@H](c4ccccc4)CN3C=[N+](C)C)n2)s1 [Compound I-294]	1000 to 8000
CO[C@H]1C[C@@H](C(=O)Nc2nc(-c3sc(C)nc3C)cs2)C1 [Compound I-269]	1000 to 8000
O=C(Nc1nc(-c2sc(CO)nc2CCCO)cs1)C1CN(c2ccc(C(F)(F)F)cc2)C1 [Compound I-348]	< 100
Cc1nc(C)c(-c2nc(NC(=O)Cc3c(F)cccc3F)sc2C)s1 [Compound I-72]	1000 to 8000
Cc1nc(C)c(-c2nc(NC(=O)Cc3c(F)cccc3F)sc2CO)s1 [Compound I-74]	1000 to 8000
Cc1nc(C)c(-c2nc(NC(=O)Cc3c(F)cccc3F)sc2C(=O)Nc2ccccc2)s1 [Compound I-75]	1000 to 8000
Cc1nc(CO)sc1-c1csc(NC(=O)[C@H]2C[C@@H](OCc3ccccc3C(F)(F)F)C2)n1 [Compound I-346]	< 100
Cc1nc(C)c(-c2csc(NC(=O)[C@H]3C[C@H](Cl)C3)n2)s1 [Compound I-326]	< 100
Cc1nc(CO)sc1-c1csc(NC(=O)C2CC(=O)C2)n1 [Compound I-267]	1000 to 8000
O=C(Nc1nc(-c2sc(CO)nc2CO)cs1)C1CN(c2ccc(F)cc2)C1 [Compound I-372]	100 to 1000
CCNC(=O)c1nc(C)sc1-c1csc(NC(=O)Cc2c(F)cccc2F)n1 [Compound I-181]	1000 to 8000
O=C(Nc1nc(-c2sc(CO)nc2CO)cs1)C1CCC(C(F)(F)F)CC1 (centres unmarked) [Compound I-253]	100 to 1000

Compound	IC50 [nM]
Cc1nc(C)c(-c2csc(NC(=O)[C@H]3C[C@H](Oc4ccc(C(F)(F)F)cc4)C3)n2)s1 [Compound I-365]	< 100
Cc1nc(C)c(-c2csc(NC(=O)Cc3ccc(C(F)(F)F)cn3)n2)s1 [Compound I-118]	100 to 1000
O=C(Cc1ccc(S(=O)(=O)C(F)(F)F)cc1)Nc1nc(-c2sc(CO)nc2CO)cs1 [Compound I-174]	< 100
C=C(C)c1sc(NC(=O)Cc2c(F)cccc2F)nc1-c1sc(C)nc1C [Compound I-71]	1000 to 8000
CC(=O)NCc1nc(CO)sc1-c1csc(NC(=O)C2CN(c3ccc(C(F)(F)F)cc3)C2)n1 [Compound I-353]	< 100
CC(C)OC(=O)N1C[C@H](c2ccccc2)C[C@H]1C(=O)Nc1nc(-c2sc(CO)nc2CO)cs1 [Compound I-344]	100 to 1000
CC(=O)NCc1nc(CO)sc1-c1csc(NC(=O)Cc2ccc(S(=O)(=O)C(F)(F)F)cc2)n1 [Compound I-382]	< 100
Cc1nc(C)c(-c2csc(NC(=O)Cc3ccc(S(=O)(=O)N(C)c4cccnc4)cc3)n2)s1 [Compound I-165]	100 to 1000
Cc1nc(C)c(-c2csc(NC(=O)[C@@H]3C[C@@H](N4CCCCC4)CN3C(=O)OC(C)(C)C)n2)s1 [Compound I-275]	1000 to 8000
Cc1nc(C)c(-c2csc(NC(=O)[C@@H]3CCCN3C(=O)OC(C)(C)C)n2)s1 [Compound I-249]	100 to 1000
Cc1nc(C)c(-c2csc(NC(=O)Cc3ccc(S(=O)(=O)N(C)c4ccccc4Cl)cc3)n2)s1 [Compound I-162]	< 100
Cc1nc(C)c(-c2csc(NC(=O)[C@@H]3CC[C@H](c4ccccc4)N3)n2)s1 [Compound I-216]	100 to 1000
NCc1nc(CO)sc1-c1csc(NC(=O)C2CN(c3ccc(C(F)(F)F)cc3)C2)n1 [Compound I-340]	100 to 1000
Cc1nc(CO)sc1-c1csc(NC(=O)[C@H]2C[C@@H](OCC(F)(F)F)C2)n1 [Compound I-356]	100 to 1000
Cc1nc(C)c(-c2nc(NC(=O)Cc3c(F)cccc3F)sc2-c2cccc(O)c2)s1 [Compound I-70]	1000 to 8000
Cc1nc(C)c(-c2csc(NC(=O)[C@@H]3C[C@H](Oc4ccc(Cl)cc4)CN3C(=O)OC(C)(C)C)n2)s1 [Compound I-293]	< 100
Cc1nc(C)c(-c2csc(NC(=O)[C@@H]3C[C@@H](N4CCC(c5ccccc5)CC4)CN3)n2)s1 [Compound I-274]	1000 to 8000
O=C(Cc1ccc(S(=O)(=O)C(F)(F)F)cc1)Nc1nc(-c2sc(CO)nc2CC(=O)N2CCOCC2)cs1 [Compound I-376]	1000 to 8000
COC(=O)N1C[C@H](c2ccccc2)C[C@H]1C(=O)Nc1nc(-c2sc(C)nc2C)cs1 [Compound I-288]	< 100
Cc1nc(C)c(-c2nc(NC(=O)Cc3c(F)cccc3F)sc2/C=C\c2ccccc2)s1 [Compound I-73]	1000 to 8000
Cc1nc(C)c(-c2csc(NC(=O)Cc3ccc(S(=O)(=O)CC(F)F)cc3)n2)s1 [Compound I-143]	100 to 1000

Second part, the compound after the results:

IC50 [nM]	Compound
< 100	Cc1nc(C)c(-c2csc(NC(=O)[C@@H]3CCN(c4ncc(C(F)(F)F)cn4)C3)n2)s1 [Compound I-394]
1000 to 8000	Cc1nc(COCC(F)(F)F)sc1-c1csc(NC(=O)Cc2ccc(S(=O)(=O)C(F)(F)F)cc2)n1 [Compound I-460]
100 to 1000	O=C(Cc1ccc(S(=O)(=O)C(F)(F)F)cc1)Nc1nc(-c2sc(CO)nc2CN2CCOCC2)cs1 [Compound I-385]
100 to 1000	NC(=O)OCC(=O)NCc1nc(CO)sc1-c1csc(NC(=O)Cc2ccc(S(=O)(=O)C(F)(F)F)cc2)n1 [Compound I-440]
1000 to 8000	Cc1nc(CNC(N)=O)sc1-c1csc(NC(=O)Cc2ccc(S(=O)(=O)C(F)(F)F)cc2)n1 [Compound I-398]
< 100	Cc1nc(C)c(-c2csc(NC(=O)Cc3cccc(I)c3)n2)s1 [Compound I-443]
100 to 1000	O=C(CO)NCc1nc(CO)sc1-c1csc(NC(=O)Cc2ccc(S(=O)(=O)C(F)(F)F)cc2)n1 [Compound I-383]
1000 to 8000	Cc1nc(C)c(-c2csc(CCOCc3ccc(Br)cc3)n2)s1 [II-51]
100 to 1000	Cc1[nH]c(=O)sc1-c1csc(NC(=O)Cc2ccc(S(=O)(=O)C(F)(F)F)cc2)n1 [Compound I-451]
< 100	Cc1nc(C)c(-c2csc(NC(=O)Cn3cc(COc4ccccc4)nn3)n2)s1 [Compound I-424]
< 100	CC(=O)NCc1nc(C)sc1-c1csc(NC(=O)Cc2ccc(S(=O)(=O)C(F)(F)F)cc2)n1 [Compound I-471]
100 to 1000	NC(=O)c1nc(CO)c(-c2csc(NC(=O)[C@H]3C[C@@H](OCc4ccc(C(F)(F)F)cc4)C3)n2)s1 [Compound I-551]
100 to 1000	Cc1nc(CC(N)=O)sc1-c1csc(NC(=O)Cc2ccc(S(=O)(=O)C(F)(F)F)cc2)n1 [Compound I-411]
100 to 1000	CC(OC(N)=O)c1nc(CO)sc1-c1csc(NC(=O)Cc2ccc(S(=O)(=O)C(F)(F)F)cc2)n1 (single isomer, unassigned) [Compound I-478]
1000 to 8000	Cc1nc(C)c(-c2csc(NC(=O)OC3CN(c4ncc(C(F)(F)F)cn4)C3)n2)s1 [Compound I-386]
< 100	Cc1nc(C)c(-c2csc(NC(=O)Cc3cc(OCC(F)(F)F)cc(C(=O)N[C@H](c4ccccc4)C(F)(F)F)c3)n2)s1 [Compound I-521]
1000 to 8000	Cc1nc(OCCOCc2ccccc2)sc1-c1csc(NC(=O)Cc2ccc(S(=O)(=O)C(F)(F)F)cc2)n1 [Compound I-446]
100 to 1000	Cc1nc(C)c(-c2csc(NC(=O)[C@H]3CC[C@@H](C(=O)N[C@H](c4ccccc4)C(F)(F)F)CC3)n2)s1 [Compound I-495]
100 to 1000	Cc1nc(C)c(-c2csc(NC(=O)Cc3cccc(N(C)C(=O)c4ccccc4)c3)n2)s1 [Compound I-432]
100 to 1000	CCCCOC(CNc1nc(-c2sc(C)nc2C)cs1)c1ccc(Cl)cc1 (racemic) [II-50]
100 to 1000	Cc1nc(C(F)F)sc1-c1csc(NC(=O)Cc2ccc(N(C)C)cc2)n1 [Compound I-542]
< 100	Cc1nc(C(C)O)sc1-c1csc(NC(=O)[C@@H]2C[C@@H](c3ccccc3)CN2C(=O)C(F)(F)F)n1 (some centres unmarked) [Compound I-476]
< 100	Cc1nc(C)c(-c2csc(NC(=O)Cc3cccc(C(=O)NC(c4ccccc4)C(F)(F)F)n3)n2)s1 (centres unmarked) [Compound I-506]
1000 to 8000	Cc1nc(C)c(-c2csc(NC(=O)Cc3cc(C(=O)N[C@H](c4ccccc4)C(F)(F)F)cc(-c4nnn[nH]4)c3)n2)s1 [Compound I-520]
< 100	COc1cc(CC(=O)Nc2nc(-c3sc(C)nc3C)cs2)cc(C(=O)NC(C(C)C)C(F)(F)F)c1 (racemic) [Compound I-527]
100 to 1000	CC(=O)NC(C)c1nc(CO)sc1-c1csc(NC(=O)Cc2ccc(S(=O)(=O)C(F)(F)F)cc2)n1 (single isomer, unassigned) [Compound I-481]
< 100	Cc1nc(CO)sc1-c1csc(NC(=O)Cc2cnc(C(F)(F)F)cn2)n1 [Compound I-410]
< 100	Cc1nc(C)c(-c2csc(NC(=O)C3CN(S(=O)(=O)c4ccc(Cl)cc4Cl)C3)n2)s1 [Compound I-503]
100 to 1000	O=C(Nc1nc(-c2sc(CO)nc2CO)cs1)[C@H]1C[C@H](OCc2ccccc2)C1 [Compound I-548]
< 100	Cc1nc(C)c(-c2csc(NC(=O)Cc3cccc(C(=O)NC(C(C)(C)C)C(F)(F)F)n3)n2)s1 (centres unmarked) [Compound I-507]
